Measurements taken from patent US20230167073A1 (Teijin Pharma Limited, priority 2020, published 2023).

molecular target: T1, Human TRPC6 (Homo sapiens, UniProt Q9Y210); experiment: Evaluation of TRPC6 channel inhibitory activity (1), FLIPR Calcium 5 Assay Kit, OAG stimulation (Compound Nos. 1-1293); assay type: cell-based; settings: Human TRPC6 stably-expressing cells, OAG 30 μM, FLIPR Calcium 5 Assay Kit; read-out: Inhibitory activity (pIC50 class) (converted)
T1 construct: expressed in transfected cells
T1 sequence (Q9Y210 1-931): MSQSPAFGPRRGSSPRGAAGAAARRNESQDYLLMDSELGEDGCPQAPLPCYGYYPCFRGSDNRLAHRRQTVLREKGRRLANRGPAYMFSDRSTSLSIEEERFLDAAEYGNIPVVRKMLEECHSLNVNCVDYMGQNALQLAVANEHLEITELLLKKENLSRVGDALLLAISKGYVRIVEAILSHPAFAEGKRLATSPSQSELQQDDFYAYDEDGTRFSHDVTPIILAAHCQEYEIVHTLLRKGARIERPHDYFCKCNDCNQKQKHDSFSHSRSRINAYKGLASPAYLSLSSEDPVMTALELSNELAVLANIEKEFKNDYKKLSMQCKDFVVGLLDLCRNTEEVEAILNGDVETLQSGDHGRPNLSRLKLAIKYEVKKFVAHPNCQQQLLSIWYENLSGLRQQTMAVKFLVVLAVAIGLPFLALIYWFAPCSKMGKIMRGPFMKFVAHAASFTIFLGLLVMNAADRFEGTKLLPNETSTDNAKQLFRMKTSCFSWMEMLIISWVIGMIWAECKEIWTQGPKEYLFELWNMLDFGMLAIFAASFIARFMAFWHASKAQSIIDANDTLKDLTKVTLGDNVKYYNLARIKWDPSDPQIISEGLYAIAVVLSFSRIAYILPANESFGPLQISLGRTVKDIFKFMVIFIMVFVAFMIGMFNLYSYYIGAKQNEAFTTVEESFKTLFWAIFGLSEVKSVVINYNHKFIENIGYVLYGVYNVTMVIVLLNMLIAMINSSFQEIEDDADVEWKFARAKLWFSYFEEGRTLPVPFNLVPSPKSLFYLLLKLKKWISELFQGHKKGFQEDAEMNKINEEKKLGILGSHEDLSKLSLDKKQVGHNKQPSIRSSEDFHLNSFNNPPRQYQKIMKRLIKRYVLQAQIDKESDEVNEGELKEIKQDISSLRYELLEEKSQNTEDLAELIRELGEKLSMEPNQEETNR
How it was run: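 The FLIPR signal is maximum fluorescence after 30 μM OAG minus minimum before compound, measured in a human TRPC6 stable line loaded with Calcium 5 dye. Compounds were preincubated 20 min. pIC50 came from four-parameter logistic fitting of inhibition rates and is given as symbol ranges.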

IC50 [nM] | SMILES
< 10 | Cc1cc(Oc2cc(C#N)ccc2-c2ccc(CCN)cn2)cc(N2CCOCC2)n1 [Compound 173, 4-[5-(2-aminoethyl)pyridin-2-yl]-3-(2-methyl-6-morpholin-4-ylpyridin-4-yl)oxybenzonitrile]
< 10 | Cn1nc(-c2ccccc2)cc1Oc1cc(C#N)ccc1-c1ccc(CCN)nc1 [Compound 174, 4-[6-(2-aminoethyl)pyridin-3-yl]-3-(2-methyl-5-phenylpyrazol-3-yl)oxybenzonitrile]
< 10 | Cn1nc(-c2ccccc2)cc1Oc1cc(C#N)ccc1-c1ccc(CCN)cn1 [Compound 175, 4-[5-(2-aminoethyl)pyridin-2-yl]-3-(2-methyl-5-phenylpyrazol-3-yl)oxybenzonitrile]
< 10 | Cn1nc(-c2ccccn2)cc1Oc1cc(C#N)ccc1-c1ccc(CCN)cn1 [Compound 176, 4-[5-(2-aminoethyl)pyridin-2-yl]-3-(2-methyl-5-pyridin-2-ylpyrazol-3-yl)oxybenzonitrile]
< 10 | Cn1nc(-c2cccnc2)cc1Oc1cc(C#N)ccc1-c1ccc(C(O)CN)cc1 (centres unmarked) [Compound 177, 4-[4-(2-amino-1-hydroxyethyl)phenyl]-3-(2-methyl-5-pyridin-3-ylpyrazol-3-yl)oxybenzonitrile]
10 to 1000 | Cn1nc(-c2cccnc2)cc1Oc1cc(C#N)ccc1-c1ccc(CCN)nc1 [Compound 178, 4-[6-(2-aminoethyl)pyridin-3-yl]-3-(2-methyl-5-pyridin-3-ylpyrazol-3-yl)oxybenzonitrile]
< 10 | Cn1nc(-c2cccnc2)cc1Oc1cc(C#N)ccc1-c1ccc(CCN)cn1 [Compound 179, 4-[5-(2-aminoethyl)pyridin-2-yl]-3-(2-methyl-5-pyridin-3-ylpyrazol-3-yl)oxybenzonitrile]
< 10 | Cc1ccc(-c2cc(Oc3cc(C#N)ccc3-c3ccc(C(O)CN)cc3)n(C)n2)nc1 (centres unmarked) [Compound 180, 4-[4-(2-amino-1-hydroxyethyl)phenyl]-3-[2-methyl-5-(5-methylpyridin-2-yl)pyrazol-3-yl]oxybenzonitrile]
10 to 1000 | Cc1ccc(-c2cc(Oc3cc(C#N)ccc3-c3ccc(CCN)nc3)n(C)n2)nc1 [Compound 181, 4-[6-(2-aminoethyl)pyridin-3-yl]-3-[2-methyl-5-(5-methylpyridin-2-yl)pyrazol-3-yl]oxybenzonitrile]
< 10 | Cc1ccc(-c2cc(Oc3cc(C#N)ccc3-c3ccc(CCN)cn3)n(C)n2)nc1 [Compound 182, 4-[5-(2-aminoethyl)pyridin-2-yl]-3-[2-methyl-5-(5-methylpyridin-2-yl)pyrazol-3-yl]oxybenzonitrile]
< 10 | Cn1nc(-c2ccc(F)cc2)cc1Oc1cc(C#N)ccc1-c1ccc(C(O)CN)cc1 (centres unmarked) [Compound 183, 4-[4-(2-amino-1-hydroxyethyl)phenyl]-3-[5-(4-fluorophenyl)-2-methylpyrazol-3-yl]oxybenzonitrile]
10 to 1000 | Cn1nc(-c2ccc(F)cc2)cc1Oc1cc(C#N)ccc1-c1ccc(CCN)nc1 [Compound 184, 4-[6-(2-aminoethyl)pyridin-3-yl]-3-[5-(4-fluorophenyl)-2-methylpyrazol-3-yl]oxybenzonitrile]
< 10 | Cn1nc(-c2ccc(F)cc2)cc1Oc1cc(C#N)ccc1-c1ccc(CCN)cn1 [Compound 185, 4-[5-(2-aminoethyl)pyridin-2-yl]-3-[5-(4-fluorophenyl)-2-methylpyrazol-3-yl]oxybenzonitrile]
< 10 | Cn1nc(-c2cccc(F)c2)cc1Oc1cc(C#N)ccc1-c1ccc(CCN)cc1 [Compound 186, 4-[4-(2-aminoethyl)phenyl]-3-[5-(3-fluorophenyl)-2-methylpyrazol-3-yl]oxybenzonitrile]
< 10 | Cn1nc(-c2cccc(F)c2)cc1Oc1cc(C#N)ccc1-c1ccc(CCN)nc1 [Compound 187, 4-[6-(2-aminoethyl)pyridin-3-yl]-3-[5-(3-fluorophenyl)-2-methylpyrazol-3-yl]oxybenzonitrile]
> 1000 | Cc1nc(Oc2cc(C#N)ccc2-c2ccc(CCN)nc2)cc(-c2cccnc2)n1 [Compound 188, 4-[6-(2-aminoethyl)pyridin-3-yl]-3-(2-methyl-6-pyridin-3-ylpyrimidin-4-yl)oxybenzonitrile]

IC50 [nM] | SMILES
> 1000 | Cc1ccc(-c2cc(Oc3cc(C#N)ccc3-c3ccc(CCN)nc3)nc(C)n2)nc1 [Compound 189, 4-[6-(2-aminoethyl)pyridin-3-yl]-3-[2-methyl-6-(5-methylpyridin-2-yl)pyrimidin-4-yl]oxybenzonitrile]
10 to 1000 | Cc1nc(Oc2cc(C#N)ccc2-c2ccc(CCN)nc2)cc(-c2ccc(F)cc2)n1 [Compound 190, 4-[6-(2-aminoethyl)pyridin-3-yl]-3-[6-(4-fluorophenyl)-2-methylpyrimidin-4-yl]oxybenzonitrile]
> 1000 | Cc1nc(Oc2cc(C#N)ccc2-c2ccc3c(c2)C(O)C(N)CC3)cc(-c2ccccc2)n1 (centres unmarked) [Compound 191, 4-(7-amino-8-hydroxy-5,6,7,8-tetrahydronaphthalen-2-yl)-3-(2-methyl-6-phenylpyrimidin-4-yl)oxybenzonitrile]
10 to 1000 | Cc1nc(Oc2cc(C#N)ccc2-n2ncc3c2CCC(N)C3O)cc(-c2ccccc2)n1 (centres unmarked) [Compound 192, 4-(5-amino-4-hydroxy-4,5,6,7-tetrahydroindazol-1-yl)-3-(2-methyl-6-phenylpyrimidin-4-yl)oxybenzonitrile]
> 1000 | Cc1nc(Oc2cc(C#N)ccc2-n2cc3c(n2)CCC(N)C3O)cc(-c2ccccc2)n1 (centres unmarked) [Compound 193, 4-(5-amino-4-hydroxy-4,5,6,7-tetrahydroindazol-2-yl)-3-(2-methyl-6-phenylpyrimidin-4-yl)oxybenzonitrile]
> 1000 | Cc1nc(Oc2cc(C#N)ccc2-c2cccc(CCN)c2)cc(N2CCOCC2)n1 [Compound 194, 4-[3-(2-aminoethyl)phenyl]-3-(2-methyl-6-morpholin-4-ylpyrimidin-4-yl)oxybenzonitrile]
10 to 1000 | Cc1nc(Oc2cc(C#N)ccc2-c2csc(C(O)CN)n2)cc(-c2ccccc2)n1 (centres unmarked) [Compound 195, 4-[2-(2-amino-1-hydroxyethyl)-1,3-thiazol-4-yl]-3-(2-methyl-6-phenylpyrimidin-4-yl)oxybenzonitrile]
10 to 1000 | N#Cc1ccc(-n2ccc(C(O)CN)n2)c(Oc2cnnc(-c3ccc[nH]3)c2)c1 (centres unmarked) [Compound 196, 4-[3-(2-amino-1-hydroxyethyl)pyrazol-1-yl]-3-[6-(1H-pyrrol-2-yl)pyridazin-4-yl]oxybenzonitrile]
< 10 | Cc1cc(Oc2cc(C#N)ccc2-c2ccc(C(O)CN)cc2)cc(N2CCOCC2)n1 (centres unmarked) [Compound 197, 4-[4-(2-amino-1-hydroxyethyl)phenyl]-3-(2-methyl-6-morpholin-4-ylpyridin-4-yl)oxybenzonitrile]
< 10 | Cn1nc(-c2cccc(F)c2)cc1Oc1cc(C#N)ccc1-c1ccc(C(O)CN)cc1 (centres unmarked) [Compound 198, 4-[4-(2-amino-1-hydroxyethyl)phenyl]-3-[5-(3-fluorophenyl)-2-methylpyrazol-3-yl]oxybenzonitrile]
< 10 | Cn1nc(-c2cccc(F)c2)cc1Oc1cc(C#N)ccc1-c1ccc(CCN)cn1 [Compound 199, 4-[5-(2-aminoethyl)pyridin-2-yl]-3-[5-(3-fluorophenyl)-2-methylpyrazol-3-yl]oxybenzonitrile]
> 1000 | Cc1nc(Oc2cc(C#N)ccc2-n2cnc(C(O)CN)c2)cc(-c2ccccc2)n1 (centres unmarked) [Compound 200, 4-[4-(2-amino-1-hydroxyethyl)imidazol-1-yl]-3-(2-methyl-6-phenylpyrimidin-4-yl)oxybenzonitrile]
> 1000 | Cc1cc(Oc2cc(C#N)ccc2-c2ccc(C(=O)CN)cc2)cc(-c2ccccc2)n1 [Compound 201, 4-[4-(2-aminoacetyl)phenyl]-3-(2-methyl-6-phenylpyridin-4-yl)oxybenzonitrile]
< 10 | Cn1nc(C2CC2)cc1Oc1cc(C#N)ccc1-c1ccc(CCN)cn1 [Compound 202, 4-[5-(2-aminoethyl)pyridin-2-yl]-3-(5-cyclopropyl-2-methylpyrazol-3-yl)oxybenzonitrile]
10 to 1000 | Cc1cc(Oc2cc(C#N)ccc2-n2ccc(C(O)CN)n2)cc(-c2ccccc2)n1 (centres unmarked) [Compound 203, 4-[3-(2-amino-1-hydroxyethyl)pyrazol-1-yl]-3-(2-methyl-6-phenylpyridin-4-yl)oxybenzonitrile]
< 10 | Cn1nc(-c2ccccc2)cc1Oc1cc(C#N)ccc1-n1cc(C(O)CN)cn1 (centres unmarked) [Compound 204, 4-[4-(2-amino-1-hydroxyethyl)pyrazol-1-yl]-3-(2-methyl-5-phenylpyrazol-3-yl)oxybenzonitrile]
